From ChEMBL document CHEMBL4665629, “An optimised series of substituted N-phenylpyrrolamides as DNA gyrase B inhibitors” (Eur J Med Chem, 2019)
Values after ≈ are worked out from the molar mass of the structure shown.

How the values were obtained:
[1] = tested on: Escherichia coli; experiment: Antibacterial activity against efflux pump d effect ive Escherichia coli JW5503 harbouring tolC mutant assessed as bacterial growth inhibition at 50 uM incubated for 24 hrs by CLSI protocol based broth microdilution assay relative to control; format: functional
[2] = tested on: Escherichia coli; experiment: Antibacterial activity against outer membrane impaired Escherichia coli JD17464 harboring lpxC mutant assessed as bacterial growth inhibition at 50 uM incubated for 24 hrs by CLSI protocol based broth microdilution assay relative to control; format: functional
[3] = tested on: Pseudomonas aeruginosa; experiment: Antibacterial activity against Pseudomonas aeruginosa ATCC 27853 assessed as bacterial growth inhibition at 50 uM incubated for 24 hrs by CLSI protocol based broth microdilution assay relative to control; format: functional
[4] = tested on: Staphylococcus aureus; experiment: Antibacterial activity against Staphylococcus aureus ATCC 29213 assessed as bacterial growth inhibition at 50 uM incubated for 24 hrs by CLSI protocol based broth microdilution assay relative to control; format: functional
[5] = tested on: Klebsiella pneumoniae; experiment: Antibacterial activity against Klebsiella pneumoniae ATCC 700603 assessed as bacterial growth inhibition at 50 uM incubated for 24 hrs by CLSI protocol based broth microdilution assay relative to control; format: functional
[6] = tested on: Escherichia coli; experiment: Antibacterial activity against Escherichia coli ATCC 25922 assessed as bacterial growth inhibition at 50 uM incubated for 24 hrs by CLSI protocol based broth microdilution assay relative to control; format: functional
[7] = tested on: Enterococcus faecium; experiment: Antibacterial activity against Enterococcus faecium ATCC 35667 assessed as bacterial growth inhibition at 50 uM incubated for 24 hrs by CLSI protocol based broth microdilution assay relative to control; format: functional
[8] = tested on: Enterococcus faecalis; experiment: Antibacterial activity against Enterococcus faecalis ATCC 29212 assessed as bacterial growth inhibition at 50 uM incubated for 24 hrs by CLSI protocol based broth microdilution assay relative to control; format: functional
[9] = tested on: Klebsiella aerogenes; experiment: Antibacterial activity against Enterobacter aerogenes ATCC 13408 assessed as bacterial growth inhibition at 50 uM incubated for 24 hrs by CLSI protocol based broth microdilution assay relative to control; format: functional
[10] = tested on: Salmonella enterica; experiment: Antibacterial activity against Salmonella enterica LT2 assessed as minimum inhibitory concentration required for >=90% inhibition of bacterial growth in presence of phenylalanine-arginine beta-naphthylamide by CLSI protocol based broth microdilution assay; format: functional
[11] = tested on: Shigella flexneri; experiment: Antibacterial activity against Shigella flexneri HNCMB 20018 assessed as minimum inhibitory concentration required for >=90% inhibition of bacterial growth in presence of phenylalanine-arginine beta-naphthylamide by CLSI protocol based broth microdilution assay; format: functional
[12] = tested on: Klebsiella pneumoniae; experiment: Antibacterial activity against Klebsiella pneumoniae ATCC 10031 assessed as minimum inhibitory concentration required for >=90% inhibition of bacterial growth in presence of phenylalanine-arginine beta-naphthylamide by CLSI protocol based broth microdilution assay; format: functional
[13] = tested on: Pseudomonas aeruginosa; experiment: Antibacterial activity against Pseudomonas aeruginosa ATCC 27853 assessed as minimum inhibitory concentration required for >=90% inhibition of bacterial growth in presence of phenylalanine-arginine beta-naphthylamide by CLSI protocol based broth microdilution assay; format: functional
[14] = tested on: Escherichia coli; experiment: Antibacterial activity against Escherichia coli MG1655 assessed as minimum inhibitory concentration required for >=90% inhibition of bacterial growth in presence of phenylalanine-arginine beta-naphthylamide by CLSI protocol based broth microdilution assay; format: functional
[15] = tested on: Escherichia coli; experiment: Antibacterial activity against Escherichia coli ATCC 25922 assessed as minimum inhibitory concentration required for >=90% inhibition of bacterial growth in presence of phenylalanine-arginine beta-naphthylamide by CLSI protocol based broth microdilution assay; format: functional
[16] = tested on: Escherichia coli; experiment: Antibacterial activity against Escherichia coli ATCC 25922 assessed as minimum inhibitory concentration required for >=90% inhibition of bacterial growth by CLSI protocol based broth microdilution assay; format: functional
[17] = tested on: Streptococcus pyogenes; experiment: Antibacterial activity against Streptococcus pyogenes ATCC 19653 assessed as minimum inhibitory concentration required for >=90% inhibition of bacterial growth by CLSI protocol based broth microdilution assay; format: functional
[18] = tested on: Staphylococcus aureus; experiment: Antibacterial activity against Staphylococcus aureus ATCC 29213 assessed as minimum inhibitory concentration required for >=90% inhibition of bacterial growth by CLSI protocol based broth microdilution assay; format: functional
[19] = tested on: Enterococcus faecium; experiment: Antibacterial activity against Enterococcus faecium ATCC 35667 assessed as minimum inhibitory concentration required for >=90% inhibition of bacterial growth by CLSI protocol based broth microdilution assay; format: functional
[20] = Inhibition of Escherichia coli DNA topoisomerase 4 assessed as residual activity at 1 uM using biotinylated oligonucleotide as substrate incubated for 30 mins in presence of ATP by fluorescence-based microplate reader assay relative to control
[21] = target: DNA gyrase (Staphylococcus aureus) (UniProt P0A0K8+P20831); experiment: Inhibition of Staphylococcus aureus DNA gyrase assessed as residual activity at 1 uM using biotinylated oligonucleotide as substrate incubated for 30 mins in presence of ATP by fluorescence-based microplate reader assay relative to control; format: protein-complex assay
Sequence of DNA gyrase (Staphylococcus aureus) (P0A0K8 2-644 limits assumed): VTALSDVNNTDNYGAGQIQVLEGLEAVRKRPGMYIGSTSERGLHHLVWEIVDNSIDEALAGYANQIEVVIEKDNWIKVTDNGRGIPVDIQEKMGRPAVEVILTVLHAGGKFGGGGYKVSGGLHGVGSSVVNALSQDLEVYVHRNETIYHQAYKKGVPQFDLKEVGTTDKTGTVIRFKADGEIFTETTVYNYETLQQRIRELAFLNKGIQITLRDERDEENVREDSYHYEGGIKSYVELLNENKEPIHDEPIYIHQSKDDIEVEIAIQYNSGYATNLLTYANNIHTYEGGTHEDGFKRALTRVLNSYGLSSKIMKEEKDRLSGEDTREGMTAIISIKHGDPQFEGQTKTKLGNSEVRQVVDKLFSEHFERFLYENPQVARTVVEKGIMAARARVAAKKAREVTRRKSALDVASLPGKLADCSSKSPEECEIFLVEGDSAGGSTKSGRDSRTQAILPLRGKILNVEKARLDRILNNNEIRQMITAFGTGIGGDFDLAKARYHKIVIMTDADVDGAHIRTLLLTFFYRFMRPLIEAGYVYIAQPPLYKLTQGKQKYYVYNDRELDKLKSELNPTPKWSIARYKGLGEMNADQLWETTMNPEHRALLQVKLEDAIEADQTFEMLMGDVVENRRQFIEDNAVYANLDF
Sequence of DNA gyrase (Staphylococcus aureus) (P20831 whole entry partner): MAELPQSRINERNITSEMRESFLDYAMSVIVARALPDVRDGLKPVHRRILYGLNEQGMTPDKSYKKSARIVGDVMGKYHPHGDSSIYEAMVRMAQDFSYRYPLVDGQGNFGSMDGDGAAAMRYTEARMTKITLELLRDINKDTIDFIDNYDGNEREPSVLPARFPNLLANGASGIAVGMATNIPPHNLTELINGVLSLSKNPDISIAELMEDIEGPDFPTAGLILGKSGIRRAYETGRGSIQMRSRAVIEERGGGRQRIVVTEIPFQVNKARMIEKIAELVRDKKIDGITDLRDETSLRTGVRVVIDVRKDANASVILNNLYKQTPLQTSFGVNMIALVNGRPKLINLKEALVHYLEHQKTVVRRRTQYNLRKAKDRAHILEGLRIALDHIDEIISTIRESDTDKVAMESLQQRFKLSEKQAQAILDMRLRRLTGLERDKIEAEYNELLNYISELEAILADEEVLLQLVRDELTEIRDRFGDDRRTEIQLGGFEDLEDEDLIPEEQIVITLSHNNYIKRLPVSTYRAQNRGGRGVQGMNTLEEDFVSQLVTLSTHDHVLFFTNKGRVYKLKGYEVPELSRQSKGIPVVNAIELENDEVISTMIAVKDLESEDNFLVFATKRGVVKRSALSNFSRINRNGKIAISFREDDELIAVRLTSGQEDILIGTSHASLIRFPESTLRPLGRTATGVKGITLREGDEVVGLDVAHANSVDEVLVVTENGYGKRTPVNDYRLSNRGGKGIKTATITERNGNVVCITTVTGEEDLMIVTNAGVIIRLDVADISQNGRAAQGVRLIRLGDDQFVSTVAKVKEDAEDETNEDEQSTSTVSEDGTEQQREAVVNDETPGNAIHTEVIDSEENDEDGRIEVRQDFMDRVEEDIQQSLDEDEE

[22] = target: T1, DNA gyrase (Escherichia coli, UniProt P0AES4+P0AES6); experiment: Inhibition of Escherichia coli DNA gyrase assessed as conversion of NADH to NAD+ by ATPase assay; format: protein-complex assay
[23] = target: T1, DNA gyrase; experiment: Inhibition of Escherichia coli DNA gyrase using biotinylated oligonucleotide as substrate incubated for 30 mins in presence of ATP by fluorescence-based microplate reader assay; format: protein-complex assay
[24] = tested on: Escherichia coli; experiment: Antibacterial activity against Escherichia coli MG1655 harboring GyrB R136C mutant assessed as minimum inhibitory concentration required for >=90% inhibition of bacterial growth in presence of 50 ug/ml phenylalanine-arginine beta-naphthylamide; format: functional
[25] = tested on: Escherichia coli; experiment: Antibacterial activity against Escherichia coli MG1655 harboring […]/D87N mutant assessed as minimum inhibitory concentration required for >=90% inhibition of bacterial growth in presence of 50 ug/ml phenylalanine-arginine beta-naphthylamide; format: functional
[26] = tested on: Escherichia coli; experiment: Antibacterial activity against Escherichia coli MG1655 harboring […]/D87N and ParC S80I mutants assessed as minimum inhibitory concentration required for >=90% inhibition of bacterial growth in presence of 50 ug/ml phenylalanine-arginine beta-naphthylamide; format: functional
[27] = tested on: Klebsiella pneumoniae; experiment: Antibacterial activity against wild type Klebsiella pneumoniae ATCC 10031 assessed as minimum inhibitory concentration required for >=90% inhibition of bacterial growth in presence of 10 ug/ml phenylalanine-arginine beta-naphthamide; format: functional
[28] = tested on: Klebsiella pneumoniae; experiment: Antibacterial activity against wild type Klebsiella pneumoniae ATCC 10031 harboring GyrA S83Y mutant assessed as minimum inhibitory concentration required for >=90% inhibition of bacterial growth in presence of 10 ug/ml phenylalanine-arginine beta-naphthamide; format: functional
[29] = tested on: Klebsiella pneumoniae; experiment: Antibacterial activity against wild type Klebsiella pneumoniae ATCC 10031 harboring GyrA S83L mutant assessed as minimum inhibitory concentration required for >=90% inhibition of bacterial growth in presence of 10 ug/ml phenylalanine-arginine beta-naphthamide; format: functional
[30] = tested on: Klebsiella pneumoniae; experiment: Antibacterial activity against wild type Klebsiella pneumoniae ATCC 10031 harboring GyrA S83F/D87G mutant assessed as minimum inhibitory concentration required for >=90% inhibition of bacterial growth in presence of 10 ug/ml phenylalanine-arginine beta-naphthamide; format: functional
[31] = tested on: Klebsiella pneumoniae; experiment: Antibacterial activity against wild type Klebsiella pneumoniae ATCC 10031 harboring GyrA S83F/D87G and ParC S80I mutants assessed as minimum inhibitory concentration required for >=90% inhibition of bacterial growth in presence of 10 ug/ml phenylalanine-arginine beta-naphthamide; format: functional

CCn1cc(C(=O)O)c(=O)c2ccc(NC(=O)c3[nH]c(C)c(Cl)c3Cl)cc21
inhibition at 50 µM [1]: 54% | inhibition at 50 µM [2]: 11% | inhibition at 50 µM [3]: -5% | inhibition at 50 µM [4]: 100% | inhibition at 50 µM [5]: 7% | inhibition at 50 µM [6]: 11% | inhibition at 50 µM [7]: 97% | inhibition at 50 µM [8]: 99% | inhibition at 50 µM [9]: 9% | MIC [10]: > 32 µM | MIC [11]: > 32 µM | MIC [12]: > 32 µM | MIC [13]: > 32 µM | MIC [14]: 2.5 µM | MIC [15]: 2.3 µM | MIC [16]: > 32 µM | MIC [17]: 0.72 µM (≈ 0.294 µg/mL) | MIC [18]: 0.78 µM (≈ 0.318 µg/mL) | MIC [19]: 1.56 µM (≈ 0.637 µg/mL) | Activity [20]: 92% | Activity [21]: 90% | IC50 [22]: 1 µM | IC50 [23]: 1.4 µM | MIC [24]: 2.5 µM | MIC [25]: 2.5 µM | MIC [26]: 2.5 µM | MIC [27]: 1.2 µM | MIC [28]: 1.2 µM | MIC [29]: 1.2 µM | MIC [30]: 2.5 µM | MIC [31]: 1.2 µM
